Counter-ions that a name gives are not always drawn.
Legend:
[1] = test system: sodium channels in cultured rat hippocampus; conditions: Patent document 1, Example 129; cited from earlier work
ectopic firing = conditions: as described in Patent document 1, Example 129; cited from earlier work
human Nav1.8 = molecular target: T1, human Nav1.8 (Homo sapiens, UniProt Q9Y5Y9); experiment: Pharmacological effects on TTX-resistant Na channels in cells expressing human Nav1.8 gene (membrane potential dye, deltamethrin stimulation); assay type: cell-based
T1 construct: expressed in transfected cells
T1 sequence (Q9Y5Y9 whole entry): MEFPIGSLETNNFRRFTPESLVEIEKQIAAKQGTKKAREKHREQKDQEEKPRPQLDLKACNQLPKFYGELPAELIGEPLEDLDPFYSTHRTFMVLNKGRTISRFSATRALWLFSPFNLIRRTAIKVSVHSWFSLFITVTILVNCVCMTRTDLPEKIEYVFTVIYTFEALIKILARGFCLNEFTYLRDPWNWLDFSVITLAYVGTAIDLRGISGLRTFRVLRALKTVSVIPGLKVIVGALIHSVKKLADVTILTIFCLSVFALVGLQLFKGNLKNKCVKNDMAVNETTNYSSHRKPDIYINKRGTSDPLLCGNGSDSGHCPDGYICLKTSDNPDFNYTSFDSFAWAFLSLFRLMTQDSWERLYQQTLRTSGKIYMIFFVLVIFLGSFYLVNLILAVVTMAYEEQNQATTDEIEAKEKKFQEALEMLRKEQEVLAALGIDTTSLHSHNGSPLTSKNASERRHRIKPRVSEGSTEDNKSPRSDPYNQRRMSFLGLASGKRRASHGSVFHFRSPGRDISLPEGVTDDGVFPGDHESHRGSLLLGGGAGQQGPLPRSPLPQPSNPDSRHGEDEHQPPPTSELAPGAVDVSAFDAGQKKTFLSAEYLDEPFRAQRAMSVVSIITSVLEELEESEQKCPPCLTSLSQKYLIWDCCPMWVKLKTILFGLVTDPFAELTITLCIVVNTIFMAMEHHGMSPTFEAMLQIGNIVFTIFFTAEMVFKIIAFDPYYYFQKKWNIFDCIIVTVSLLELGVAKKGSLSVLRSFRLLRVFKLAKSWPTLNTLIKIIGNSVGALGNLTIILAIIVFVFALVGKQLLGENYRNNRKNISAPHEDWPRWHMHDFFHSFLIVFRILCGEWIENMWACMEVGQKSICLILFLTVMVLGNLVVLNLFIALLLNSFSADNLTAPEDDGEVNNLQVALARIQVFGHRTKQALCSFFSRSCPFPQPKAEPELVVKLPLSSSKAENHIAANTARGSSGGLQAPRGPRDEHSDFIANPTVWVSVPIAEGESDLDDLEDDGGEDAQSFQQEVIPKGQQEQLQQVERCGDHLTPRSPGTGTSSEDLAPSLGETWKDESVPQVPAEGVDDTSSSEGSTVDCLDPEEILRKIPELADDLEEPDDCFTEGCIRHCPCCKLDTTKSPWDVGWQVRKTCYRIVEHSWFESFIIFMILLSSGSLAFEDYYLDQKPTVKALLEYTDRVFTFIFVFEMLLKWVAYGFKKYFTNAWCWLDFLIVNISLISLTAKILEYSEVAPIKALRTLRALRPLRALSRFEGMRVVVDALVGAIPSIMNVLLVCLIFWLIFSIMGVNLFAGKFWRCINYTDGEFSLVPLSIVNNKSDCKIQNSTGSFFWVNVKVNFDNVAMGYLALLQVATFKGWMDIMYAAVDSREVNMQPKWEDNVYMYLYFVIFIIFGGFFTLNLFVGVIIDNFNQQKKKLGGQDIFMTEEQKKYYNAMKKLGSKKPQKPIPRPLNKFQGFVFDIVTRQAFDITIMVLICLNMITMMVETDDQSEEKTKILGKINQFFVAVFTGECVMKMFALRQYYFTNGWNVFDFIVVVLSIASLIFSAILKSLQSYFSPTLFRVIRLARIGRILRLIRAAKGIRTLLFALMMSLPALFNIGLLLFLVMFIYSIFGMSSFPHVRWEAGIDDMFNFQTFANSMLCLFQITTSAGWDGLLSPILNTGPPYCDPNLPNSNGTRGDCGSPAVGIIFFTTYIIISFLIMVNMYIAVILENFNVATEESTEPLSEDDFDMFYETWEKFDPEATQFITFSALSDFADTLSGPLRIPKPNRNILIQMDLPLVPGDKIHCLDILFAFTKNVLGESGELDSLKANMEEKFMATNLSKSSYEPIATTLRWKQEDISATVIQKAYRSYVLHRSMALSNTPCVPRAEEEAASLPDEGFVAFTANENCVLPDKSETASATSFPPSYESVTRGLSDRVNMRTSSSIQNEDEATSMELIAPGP
Experimental: Pharmacological Effects on TTX-Resistant Na Channels in Cells Expressing Human Nav1.8 Gene
A cell line expressing human Nav1.8 gene was used to evaluate the pharmacological effects of compounds of the invention.
. A membrane potential-sensitive dye containing TTX (final concentration: 0.25 μM) was added to cells expressing human Nav1.8, prior to incubation at 37° C. for 30-60 minutes. • 2. The test compound was added to the cells, and the mixture was stationed for 15-30 minutes at room temperature while shielded from light. • 3. Deltamethrin (final concentration: 50 μM), a Nav1.8 channel stimulant, was added, and the change in fluorescence intensity due to increased membrane potential was measured. Pharmacological Evaluation
The Nav1.8 channel inhibition of the test compound was determined by the following equation. […] Test Results

Which results are given for O=c1[nH]cccc1CN1CC2CCCC(C1)C2/C=C/c1ccccc1F (stereo not shown)?
inhibitory activity against sodium channels [1]: has an inhibitory activity; inhibitory activity against ectopic firing (ectopic firing): inadequate

Which IC50 (human Nav1.8) does the source give for CCn1c(C)nc(=O)n(C[C@H](O)CN2[C@@H]3CC[C@H]2C[C@@H](OCc2ccccc2CF)C3)c1=O [Example 66, (Endo)-1-ethyl-3-{(R)-3-[3-(2-fluoromethylbenzyloxy)-8-azabicyclo[3.2.1]oct-8-yl]-2-hydroxypropyl}-6-methyl-1H-[1,3,5]triazine-2,4-dione oxalate] here?
The IC50 was 5.4 µM.

With CNCCCN1c2ccccc2CCc2ccccc21 [desipramine] as the compound, how does the Nav1.8 channel inhibition (human Nav1.8; 30 μM desipramine, reference for complete inhibition under deltamethrin stimulation) read?
The Nav1.8 channel inhibition was “completely inhibits”.
